Among the data in US9657057B2, “Dipeptide and tripeptide epoxy ketone protease inhibitors” (Onyx Therapeutics, Inc., priority 2013, dated 2017) are IC50 and solubility values, retold here.

The target of one series is T1, β5 (Homo sapiens, UniProt P20618+P28074).
T1 construct: endogenous in cells; host or cells: MOLT-4
The series is described as follows: ProCISE proteasome subunit assay, β5. The series is classed as biochemical. Particulars: MOLT4 lysate Hu 1 h. Here is the method:
(§1) This assay was used to assess the inhibitory activity against each of LMP2, LMP7, MECL1, β1, β2, and β5. Briefly, test compounds were serially diluted in DMSO at 100× concentration, then diluted to 10× in aqueous hypotonic lysis buffer. Lysate from the human acute lymphoblastic leukemia cell line, MOLT-4, was treated for 1 hour at 25° C. with compound at a final 1× concentration. […] Following this, lysate was denatured in guanidine hydrochloride, and subunits bound to probe were isolated with streptavidin-conjugated sepharose beads. Individual subunits were probed with subunit-specific primary antibodies, followed by HRP-conjugated secondary antibodies. A chemiluminescent substrate was used to generate signal associated with HRP binding, which was detected on a plate reader. Luminescent signal was normalized to protein content, then, percent activity calculated relative to DMSO-treated controls to generate IC50 curves.

The target of a further series is T2, LMP7 (Homo sapiens, UniProt P20618+P28062).
T2 construct: endogenous in cells; host or cells: MOLT-4
The series is described as follows: ProCISE proteasome subunit assay, LMP7. The series is classed as biochemical. The note with it: MOLT4 lysate Hu 1 h. Here is the method:
as §1

A further series in a line: Solubility pH 7. The series is classed as physicochemical. The note with it: pH 7, aqueous buffer.
The target in series [1] is c20S (constitutive 20S proteasome) (Homo sapiens, UniProt P20618+P28074). The series is described as follows: 20S proteasome assay, chymotrypsin-like activity (LLVY), c20S. The series is classed as biochemical. Particulars: LLVY c20S Hu 1 h CONT: IC50 (nM), succinyl-Leu-Leu-Val-Tyr-AMC. The text has this: (§2) Assay buffer consisted of TE buffer [20 mmol/L Tris (pH 8.0), 0.5 mmol/L EDTA] with (20S) or without (cell lysate) 0.03% SDS. Reactions were initiated by enzyme or lysate addition and monitored for AMC product formation at 27jC with a plate-based spectofluorometer (Tecan).

Series [2] has as its target i20S (20S immunoproteasome) (Homo sapiens, UniProt P20618+P28062). The experiment in a line: 20S proteasome assay, chymotrypsin-like activity (LLVY), i20S. The series is classed as biochemical. Particulars: LLVY i20S Hu 1 h CONT: IC50 (nM), succinyl-Leu-Leu-Val-Tyr-AMC.
From the text: as §2

In brackets after ≈: the same amount, converted by molar mass.

With `COc1ccc(C[C@H](NC(=O)[C@@H](C)NC(=O)C[C@H](C)O)C(=O)N[C@@H](CC2CCCC2)C(=O)[C@@]2(C)CO2)cc1` [Compound C-2043, (S)—N—((R)-1-(((S)-1-(((S)-3-cyclopentyl-1-((R)-2-methyloxiran-2-yl)-1-oxopropan-2-yl)amino)-3-(4-methoxyphenyl)-1-oxopropan-2-yl)amino)-1-oxopropan-2-yl)-3-hydroxybutanamide], the IC50 at β5 came out at 11000 nM; at LMP7, 593 nM; in series [1] it was 15100 nM; in series [2], 271 nM. This compound registered a solubility in “Solubility pH 7” of 2380 µg/mL (≈ 4480 µM).
Take `COc1ccc(C[C@H](NC(=O)[C@H](C)NC(=O)c2cc(C)no2)C(=O)N[C@@H](CC2CCCC2)C(=O)[C@@]2(C)CO2)cc1` [Compound C-2022, N—((S)-1-(((S)-1-(((S)-3-cyclopentyl-1-((R)-2-methyloxiran-2-yl)-1-oxopropan-2-yl)amino)-3-(4-methoxyphenyl)-1-oxopropan-2-yl)amino)-1-oxopropan-2-yl)-3-methylisoxazole-5-carboxamide]: the IC50 on β5 is 429 nM; on LMP7, 195 nM; in series [1] it was 65.3 nM; in series [2] it was 23.5 nM. For the same compound, the concentration in solution in the series “Solubility pH 7” (solubility) was 84.7 µg/mL (≈ 153 µM).
Take `COc1ccc(C[C@H](NC(=O)[C@H](C)NC(=O)Cc2cc(C)no2)C(=O)N[C@@H](CC2CCCC2)C(=O)[C@@]2(C)CO2)cc1` [Compound C-2014, (S)—N—((S)-3-cyclopentyl-1-((R)-2-methyloxiran-2-yl)-1-oxopropan-2-yl)-3-(4-methoxyphenyl)-2-((S)-2-(2-(3-methylisoxazol-5-yl)acetamido)propanamido)propanamide]: the IC50 against β5 worked out at 372 nM; against LMP7, 56.4 nM; in series [1], 45.7 nM; in series [2], 16.6 nM.
For `COc1ccc(C[C@H](NC(=O)[C@@H](C)NC(=O)C[C@@H](C)O)C(=O)N[C@@H](CC2CCCC2)C(=O)[C@@]2(C)CO2)cc1` [Compound C-2042, (R)—N—((R)-1-(((S)-1-(((S)-3-cyclopentyl-1-((R)-2-methyloxiran-2-yl)-1-oxopropan-2-yl)amino)-3-(4-methoxyphenyl)-1-oxopropan-2-yl)amino)-1-oxopropan-2-yl)-3-hydroxybutanamide], the IC50 on β5 is 5920 nM; on LMP7, 621 nM; in series [1] it was 9450 nM; in series [2] it was 336 nM. In addition, the concentration in solution in “Solubility pH 7” (solubility) came to 1830 µg/mL (≈ 3450 µM).
Take `COc1ccc(C[C@H](NC(=O)[C@@H](C)NC(=O)c2cccnc2)C(=O)N[C@@H](CC2CCCC2)C(=O)[C@@]2(C)CO2)cc1` [Compound C-2032, N—((R)-1-(((S)-1-(((S)-3-cyclopentyl-1-((R)-2-methyloxiran-2-yl)-1-oxopropan-2-yl)amino)-3-(4-methoxyphenyl)-1-oxopropan-2-yl)amino)-1-oxopropan-2-yl)nicotinamide]: the IC50 against β5 came to 4050 nM; against LMP7 it was 452 nM; in series [1], 1890 nM; in series [2], 107 nM. Moreover, in “Solubility pH 7”, the concentration in solution (solubility) was 172 µg/mL (≈ 313 µM).
As to `COc1ccc(C[C@H](NC(=O)[C@@H](C)NC(=O)c2ccccn2)C(=O)N[C@@H](CC2CCCC2)C(=O)[C@@]2(C)CO2)cc1` [Compound C-2031, N—((R)-1-(((S)-1-(((S)-3-cyclopentyl-1-((R)-2-methyloxiran-2-yl)-1-oxopropan-2-yl)amino)-3-(4-methoxyphenyl)-1-oxopropan-2-yl)amino)-1-oxopropan-2-yl)picolinamide], the IC50 was 26700 nM against β5, 1450 nM against LMP7, 18300 nM in series [1] and 763 nM in series [2]. The compound further showed a solubility in the series “Solubility pH 7” of 41.7 µg/mL (≈ 75.7 µM).
The corresponding values for `COc1ccc(C[C@H](NC(=O)[C@H]2CCC(=O)N2)C(=O)N[C@@H](Cc2ccccc2)C(=O)[C@@]2(C)CO2)cc1` [Compound C-3012, (R)—N—((S)-3-(4-methoxyphenyl)-1-(((S)-1-((R)-2-methyloxiran-2-yl)-1-oxo-3-phenylpropan-2-yl)amino)-1-oxopropan-2-yl)-5-oxopyrrolidine-2-carboxamide] are 6040 nM, 2750 nM, 14500 nM, 4790 nM and 4410 µg/mL (≈ 8930 µM).
The corresponding values for `COc1ccc(C[C@H](NC(=O)[C@@H](CO)NC(=O)c2cc(C)no2)C(=O)N[C@@H](CC2CCCC2)C(=O)[C@@]2(C)CO2)cc1` [Compound C-2030, N—((R)-1-(((S)-1-(((S)-3-cyclopentyl-1-((R)-2-methyloxiran-2-yl)-1-oxopropan-2-yl)amino)-3-(4-methoxyphenyl)-1-oxopropan-2-yl)amino)-3-hydroxy-1-oxopropan-2-yl)-3-methylisoxazole-5-carboxamide] are 2130 nM, 315 nM, 785 nM, 71.7 nM and 286 µg/mL (≈ 502 µM).
For `COc1ccc(C[C@H](NC(=O)[C@@H](C)NC(=O)c2nc3ccccc3[nH]2)C(=O)N[C@@H](CC2CCCC2)C(=O)[C@@]2(C)CO2)cc1` [Compound C-2029, N—((R)-1-(((S)-1-(((S)-3-cyclopentyl-1-((R)-2-methyloxiran-2-yl)-1-oxopropan-2-yl)amino)-3-(4-methoxyphenyl)-1-oxopropan-2-yl)amino)-1-oxopropan-2-yl)-1H-benzo[d]imidazole-2-carboxamide], the concentration in solution in the series “Solubility pH 7” (solubility) came to 1.7 µg/mL (≈ 2.88 µM). In addition, the IC50 was 3400 nM in series [1] and 2580 nM in series [2].
For the compound `COc1ccc(C[C@H](NC(=O)[C@@H](C)NC(=O)c2ccno2)C(=O)N[C@@H](CC2CCCC2)C(=O)[C@@]2(C)CO2)cc1` [Compound C-2041, N—((R)-1-(((S)-1-(((S)-3-cyclopentyl-1-((R)-2-methyloxiran-2-yl)-1-oxopropan-2-yl)amino)-3-(4-methoxyphenyl)-1-oxopropan-2-yl)amino)-1-oxopropan-2-yl)isoxazole-5-carboxamide], the concentration in solution in “Solubility pH 7” (solubility) was 65.9 µg/mL (≈ 122 µM). For the same compound, the IC50 in series [1] amounted to 9800 nM; in series [2], 1400 nM.
Consider `COc1ccc(C[C@H](NC(=O)[C@H](C)NC(=O)CCO)C(=O)N[C@@H](Cc2ccccc2)C(=O)[C@@]2(C)CO2)cc1` [Compound C-2012, (S)-2-((S)-2-(3-hydroxypropanamido)propanamido)-3-(4-methoxyphenyl)-N—((S)-1-((R)-2-methyloxiran-2-yl)-1-oxo-3-phenylpropan-2-yl)propanamide], for which the solubility in the series “Solubility pH 7” was 3830 µg/mL (≈ 7280 µM). Also, the IC50 came out at 262 nM in series [1] and 86.9 nM in series [2].
For `CCOCC(=O)N[C@@H](C)C(=O)N[C@@H](Cc1ccc(OC)cc1)C(=O)N[C@@H](CC1CCCC1)C(=O)[C@@]1(C)CO1` [Compound C-2020, (S)—N—((S)-3-cyclopentyl-1-((R)-2-methyloxiran-2-yl)-1-oxopropan-2-yl)-2-((S)-2-(2-ethoxyacetamido)propanamido)-3-(4-methoxyphenyl)propanamide] the same measures were 59.1 µg/mL (≈ 111 µM), 797 nM and 560 nM.
Turning to `COc1ccc(C[C@H](NC(=O)CNC(=O)C2=C(C)c3ccccc3C2)C(=O)N[C@@H](CC2CCCC2)C(=O)[C@@]2(C)CO2)cc1` [Compound C-2039, N-(2-(((S)-1-(((S)-3-cyclopentyl-1-((R)-2-methyloxiran-2-yl)-1-oxopropan-2-yl)amino)-3-(4-methoxyphenyl)-1-oxopropan-2-yl)amino)-2-oxoethyl)-3-methyl-1H-indene-2-carboxamide], the concentration in solution in “Solubility pH 7” (solubility) came to 1.7 µg/mL (≈ 2.89 µM). In addition, the IC50 is 3950 nM in series [1] and 2520 nM in series [2].
For `COc1ccc(C[C@H](NC(=O)[C@H](C)NC(=O)C(F)(F)F)C(=O)N[C@@H](Cc2ccccc2)C(=O)[C@@]2(C)CO2)cc1` [Compound C-2011, (S)-3-(4-Methoxyphenyl)-N—((S)-1-((R)-2-methyloxiran-2-yl)-1-oxo-3-phenylpropan-2-yl)-2-((S)-2-(2,2,2-trifluoroacetamido)propanamido)propanamide], the IC50 against β5 was 342 nM; on LMP7, 97.1 nM; in series [1], 68.6 nM; in series [2] it was 13.5 nM.
The compound `COC(=O)N[C@H](C)C(=O)N[C@@H](Cc1ccc(OC)cc1)C(=O)N[C@@H](Cc1ccccc1)C(=O)[C@@]1(C)CO1` [Compound C-2010, Methyl ((R)-1-(((S)-3-(4-methoxyphenyl)-1-(((S)-1-((R)-2-methyloxiran-2-yl)-1-oxo-3-phenylpropan-2-yl)amino)-1-oxopropan-2-yl)amino)-1-oxopropan-2-yl)carbamate] returned a solubility in the series “Solubility pH 7” of 300 µg/mL (≈ 587 µM). For the same compound, the results for the IC50 in series [1] and in series [2] were 1050 nM and 414 nM, respectively.
For the compound `COc1ccc(C[C@H](NC(=O)[C@H](C)NC(=O)C(C)(F)F)C(=O)N[C@@H](Cc2ccccc2)C(=O)[C@@]2(C)CO2)cc1` [Compound C-2006], the IC50 came to 180 nM at β5, 34.4 nM at LMP7, 29 nM in series [1] and 6.1 nM in series [2].

The term IC50 denotes the concentration at which inhibition is half-maximal. A lower IC50 goes with greater potency. By solubility is commonly meant how much of the substance goes into solution per volume.
